Source: ChEMBL document CHEMBL1201862, “PubChem BioAssay data set” (2004)
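Protocol summary: plate cells (96-well), add compound at 5 concentrations, incubate 48 h, interpolate endpoints linearly. GI50 is the concentration that inhibits growth by half.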 The source made the active and inactive calls. Rule as the data show it: active = GI50 up to about 1.1 µM and inactive = higher.

What was measured:
Assay in all cases: inhibition of tumour cell growth, NCI panel, 48 h
[1] = tested on: 786-0
[2] = tested on: A498
[3] = tested on: A549
[4] = tested on: ACHN
[5] = tested on: BT-549
[6] = tested on: CAKI-1
[7] = tested on: CCRF-CEM
[8] = tested on: COLO 205
[9] = tested on: DU-145
[10] = tested on: EKVX
[11] = tested on: HCC 2998
[12] = tested on: HCT-116
[13] = tested on: HCT-15
[14] = tested on: HL-60
[15] = tested on: HOP-62
[16] = tested on: HOP-92
[17] = tested on: HT-29
[18] = tested on: Hs-578T
[19] = tested on: IGROV-1
[20] = tested on: K562
[21] = tested on: KM12
[22] = tested on: LOX IMVI
[23] = tested on: M14
[24] = tested on: MCF7
[25] = tested on: MDA-MB-231
[26] = tested on: MDA-MB-435
[27] = tested on: MDA-N
[28] = tested on: MOLT-4
[29] = tested on: NCI-H226
[30] = tested on: NCI-H23
[31] = tested on: NCI-H460
[32] = tested on: NCI/ADR-RES
[33] = tested on: OVCAR-3
[34] = tested on: OVCAR-4
[35] = tested on: OVCAR-5
[36] = tested on: OVCAR-8
[37] = tested on: PC-3
[38] = tested on: RPMI-8226
[39] = tested on: RXF 393
[40] = tested on: SF-268
[41] = tested on: SF-295
[42] = tested on: SF-539
[43] = tested on: SK-MEL-28
[44] = tested on: SK-MEL-2
[45] = tested on: SK-MEL-5
[46] = tested on: SK-OV-3
[47] = tested on: SN12C
[48] = tested on: SNB-19
[49] = tested on: SNB-75
[50] = tested on: SR
[51] = tested on: SW-620
[52] = tested on: T47D
[53] = tested on: TK-10
[54] = tested on: U-251
[55] = tested on: UACC-257
[56] = tested on: UACC-62
[57] = tested on: UO-31
[58] = tested on: Malme-3M
[59] = tested on: NCI-H522

## CCOc1ccccc1/N=C\c1c2ccccc2cc2ccccc12
[1]
  GI50: 18.8 µM (inactive)
[2]
  GI50: 27 µM (inactive)
[3]
  GI50: 26.4 µM (inactive)
[4]
  GI50: 29 µM (inactive)
[5]
  GI50: 28.2 µM (inactive)
[6]
  GI50: 24.2 µM (inactive)
[7]
  GI50: 9.29 µM (inactive)
[8]
  GI50: 32.3 µM (inactive)
[9]
  GI50: 22.1 µM (inactive)
[10]
  GI50: 18.1 µM (inactive)
[11]
  GI50: 18.5 µM (inactive)
[12]
  GI50: 18.4 µM (inactive)
[13]
  GI50: 24.4 µM
[14]
  GI50: 16 µM (inactive)
[15]
  GI50: 26.1 µM (inactive)
[16]
  GI50: 21 µM (inactive)
[17]
  GI50: 21.6 µM (inactive)
[18]
  GI50: 15.3 µM (inactive)
[19]
  GI50: 22.8 µM (inactive)
[20]
  GI50: 17.3 µM (inactive)
[21]
  GI50: 15.1 µM (inactive)
[22]
  GI50: 19.1 µM (inactive)
[23]
  GI50: 20.3 µM (inactive)
[24]
  GI50: 29.4 µM (inactive)
[25]
  GI50: 27.2 µM (inactive)
[26]
  GI50: 22.7 µM (inactive)
[27]
  GI50: 21.9 µM (inactive)
[28]
  GI50: 11.6 µM (inactive)
[29]
  GI50: 46.5 µM (inactive)
[30]
  GI50: 17.3 µM (inactive)
[31]
  GI50: 29.9 µM (inactive)
[32]
  GI50: 23.1 µM (inactive)
[33]
  GI50: 24.7 µM (inactive)
[34]
  GI50: 24.3 µM (inactive)
[35]
  GI50: 25.8 µM (inactive)
[36]
  GI50: 23.8 µM (inactive)
[37]
  GI50: 23.3 µM (inactive)
[38]
  GI50: 15.5 µM (inactive)
[39]
  GI50: 15.7 µM (inactive)
[40]
  GI50: 21.2 µM (inactive)
[41]
  GI50: 30 µM (inactive)
[42]
  GI50: 23.8 µM (inactive)
[43]
  GI50: 26.2 µM (inactive)
[44]
  GI50: 22.1 µM (inactive)
[45]
  GI50: 25.6 µM (inactive)
[46]
  GI50: 22.3 µM (inactive)
[47]
  GI50: 22.4 µM (inactive)
[48]
  GI50: 26.4 µM (inactive)
[49]
  GI50: 19.5 µM (inactive)
[50]
  GI50: 15.2 µM (inactive)
[51]
  GI50: 24.5 µM (inactive)
[52]
  GI50: 18.9 µM (inactive)
[53]
  GI50: 25 µM (inactive)
[54]
  GI50: 20.4 µM (inactive)
[55]
  GI50: 31.1 µM (inactive)
[56]
  GI50: 38.5 µM (inactive)
[57]
  GI50: 18.6 µM (inactive)

## Oc1ccnc(SCc2ccc(Cl)cc2)n1
[1]
  GI50: > 100 µM (inactive)
[2]
  GI50: > 100 µM (inactive)
[3]
  GI50: > 100 µM (inactive)
[4]
  GI50: > 100 µM (inactive)
[5]
  GI50: > 100 µM (inactive)
[6]
  GI50: > 100 µM (inactive)
[7]
  GI50: > 100 µM (inactive)
[8]
  GI50: > 100 µM (inactive)
[9]
  GI50: > 100 µM (inactive)
[10]
  GI50: > 100 µM (inactive)
[11]
  GI50: 13.4 µM (inactive)
[12]
  GI50: > 100 µM (inactive)
[13]
  GI50: > 100 µM
[15]
  GI50: > 100 µM (inactive)
[16]
  GI50: > 100 µM (inactive)
[17]
  GI50: > 100 µM (inactive)
[18]
  GI50: > 100 µM (inactive)
[19]
  GI50: > 100 µM (inactive)
[20]
  GI50: > 100 µM (inactive)
[21]
  GI50: > 100 µM (inactive)
[22]
  GI50: > 100 µM (inactive)
[23]
  GI50: > 100 µM (inactive)
[24]
  GI50: > 100 µM (inactive)
[25]
  GI50: > 100 µM (inactive)
[26]
  GI50: > 100 µM (inactive)
[27]
  GI50: > 100 µM (inactive)
[28]
  GI50: 63.7 µM (inactive)
[58]
  GI50: > 100 µM (inactive)
[30]
  GI50: > 100 µM (inactive)
[31]
  GI50: > 100 µM (inactive)
[59]
  GI50: 62.2 µM (inactive)
[32]
  GI50: > 100 µM (inactive)
[33]
  GI50: 57.3 µM (inactive)
[34]
  GI50: > 100 µM (inactive)
[35]
  GI50: > 100 µM (inactive)
[36]
  GI50: > 100 µM (inactive)
[37]
  GI50: > 100 µM (inactive)
[38]
  GI50: 56.1 µM (inactive)
[39]
  GI50: > 100 µM (inactive)
[40]
  GI50: > 100 µM (inactive)
[41]
  GI50: 87.1 µM (inactive)
[42]
  GI50: > 100 µM (inactive)
[43]
  GI50: > 100 µM (inactive)
[44]
  GI50: > 100 µM (inactive)
[45]
  GI50: > 100 µM (inactive)
[46]
  GI50: > 100 µM (inactive)
[47]
  GI50: > 100 µM (inactive)
[48]
  GI50: > 100 µM (inactive)
[49]
  GI50: > 100 µM (inactive)
[50]
  GI50: > 100 µM (inactive)
[51]
  GI50: > 100 µM (inactive)
[52]
  GI50: > 100 µM (inactive)
[53]
  GI50: > 100 µM (inactive)
[54]
  GI50: > 100 µM (inactive)
[55]
  GI50: > 100 µM (inactive)
[56]
  GI50: > 100 µM (inactive)
[57]
  GI50: > 100 µM (inactive)

## CC1=NN(c2ccc(S(=O)(=O)O)cc2)C2(C1)C(Cl)C(=O)N2c1nc2ccccc2s1 (configuration not stated)
[1]
  GI50: > 100 µM (inactive)
[2]
  GI50: > 100 µM (inactive)
[3]
  GI50: > 100 µM (inactive)
[4]
  GI50: > 100 µM (inactive)
[5]
  GI50: > 100 µM (inactive)
[6]
  GI50: > 100 µM (inactive)
[7]
  GI50: > 100 µM (inactive)
[8]
  GI50: > 100 µM (inactive)
[9]
  GI50: > 100 µM (inactive)
[10]
  GI50: 55.7 µM (inactive)
[11]
  GI50: > 100 µM (inactive)
[12]
  GI50: > 100 µM (inactive)
[13]
  GI50: > 100 µM
[14]
  GI50: > 100 µM (inactive)
[15]
  GI50: 91.2 µM (inactive)
[16]
  GI50: > 100 µM (inactive)
[17]
  GI50: > 100 µM (inactive)
[18]
  GI50: > 100 µM (inactive)
[19]
  GI50: > 100 µM (inactive)
[20]
  GI50: > 100 µM (inactive)
[21]
  GI50: > 100 µM (inactive)
[22]
  GI50: 57.8 µM (inactive)
[23]
  GI50: > 100 µM (inactive)
[24]
  GI50: > 100 µM (inactive)
[25]
  GI50: > 100 µM (inactive)
[26]
  GI50: > 100 µM (inactive)
[27]
  GI50: > 100 µM (inactive)
[28]
  GI50: > 100 µM (inactive)
[58]
  GI50: > 100 µM (inactive)
[29]
  GI50: 21.4 µM (inactive)
[30]
  GI50: > 100 µM (inactive)
[31]
  GI50: > 100 µM (inactive)
[59]
  GI50: > 100 µM (inactive)
[32]
  GI50: > 100 µM (inactive)
[33]
  GI50: 68.4 µM (inactive)
[34]
  GI50: > 100 µM (inactive)
[35]
  GI50: > 100 µM (inactive)
[36]
  GI50: > 100 µM (inactive)
[37]
  GI50: > 100 µM (inactive)
[38]
  GI50: > 100 µM (inactive)
[39]
  GI50: > 100 µM (inactive)
[40]
  GI50: > 100 µM (inactive)
[41]
  GI50: > 100 µM (inactive)
[43]
  GI50: > 100 µM (inactive)
[44]
  GI50: 92.5 µM (inactive)
[45]
  GI50: > 100 µM (inactive)
[46]
  GI50: > 100 µM (inactive)
[47]
  GI50: > 100 µM (inactive)
[48]
  GI50: > 100 µM (inactive)
[49]
  GI50: > 100 µM (inactive)
[50]
  GI50: > 100 µM (inactive)
[51]
  GI50: > 100 µM (inactive)
[52]
  GI50: 59.8 µM (inactive)
[53]
  GI50: > 100 µM (inactive)
[54]
  GI50: > 100 µM (inactive)
[55]
  GI50: > 100 µM (inactive)
[56]
  GI50: 95.9 µM (inactive)
[57]
  GI50: > 100 µM (inactive)
